What was measured:
[1] = test system: TGF-β-stimulated SMAD3 phosphorylation in BEAS-2B cells; assay: Cellular ALK5 potency assay, inhibition of TGF-β stimulated pSMAD3 formation in BEAS-2B cells; type: cell-based; conditions: Homo sapiens, pSMAD3, TGF-β 10 ng/mL, read-out: BEAS2B pIC50 (converted)
Method in brief: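 Cells were seeded overnight, rinsed into HEPES/BSA-supplemented HBSS, and dosed with serially diluted compound for 1 h at 37 °C, 5% CO2. TGF-β stimulation (10 ng/mL final) followed for 30 min, then lysis and AlphaLISA pSMAD3 measurement; potency reported as pIC50.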

[2] = target: T1, recombinant human ALK5 (TGF-βR1) protein (Homo sapiens, UniProt P36897); assay: Biochemical ALK5 (TGF-βR1) assay to measure pKi (LANCE Ultra ULight kinase assay); conditions: apparent pKi, converted from pIC50 by Cheng-Prusoff
T1 construct: purchased Life Technologies PR9075A
T1 sequence (P36897 34-503): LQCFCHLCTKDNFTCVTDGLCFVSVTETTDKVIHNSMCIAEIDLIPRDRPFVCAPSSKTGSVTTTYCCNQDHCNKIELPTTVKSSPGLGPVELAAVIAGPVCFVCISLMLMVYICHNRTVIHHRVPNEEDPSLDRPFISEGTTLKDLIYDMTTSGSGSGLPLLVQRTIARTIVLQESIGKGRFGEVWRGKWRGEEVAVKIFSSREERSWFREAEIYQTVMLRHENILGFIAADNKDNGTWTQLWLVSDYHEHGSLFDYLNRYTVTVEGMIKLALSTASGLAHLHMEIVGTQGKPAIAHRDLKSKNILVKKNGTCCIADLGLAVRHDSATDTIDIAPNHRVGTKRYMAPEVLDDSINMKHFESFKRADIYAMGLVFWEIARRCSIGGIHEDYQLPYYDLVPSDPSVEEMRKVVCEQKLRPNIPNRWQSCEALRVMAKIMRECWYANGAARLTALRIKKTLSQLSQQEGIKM
Method in brief: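 Cmpd + enzyme, 60 min RT; ATP from 125 μM (5×) stock, 60 min 37 °C; stop 12 mM EDTA/Eu anti-pThr1342 Topo2α Ab (pH 7.0 buffer); TR-FRET 665 nm. DMSO = max, SD-208 = min signal. 4-PL pIC50 → pKi (Cheng-Prusoff).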

Row | Ki [2] | SMILES | IC50 [1]
1 | 0.0398 to 0.316 nM | Cc1cccc(-c2nccc(Nc3ccnc(Nc4ccc(NC(=O)C5(CO)CNC5)cc4)n3)n2)n1 [Compound 209, 3-(hydroxymethyl)-N-(4-((4-((2-(6-methylpyridin-2-yl)pyrimidin-4-yl)amino)pyrimidin-2-yl)amino)phenyl)azetidine-3-carboxamide] | ≤ 20 nM
2 | 0.0398 to 0.316 nM | Cc1cccc(-c2nccc(Nc3ccnc(Nc4cnn(CCC5CCNCC5)c4)n3)n2)n1 [Compound 390, N4-[2-(6-methyl-2-pyridyl)pyrimidin-4-yl]-N2-[1-[2-(4-piperidyl)ethyl]pyrazol-4-yl]pyrimidine-2,4-diamine] | 200 to 1260 nM
3 | 0.0398 to 0.316 nM | Cc1cccc(-c2nccc(Nc3ccnc(Nc4ccc(C(=O)OC[C@H]5CCCCN5)nc4)n3)n2)n1 [Compound 628, [(2R)-2-piperidyl]methyl 5-[[4-[[2-(6-methyl-2-pyridyl)pyrimidin-4-yl]amino]pyrimidin-2-yl]amino]pyridine-2-carboxylate] | 25.1 to 158 nM
4 | 0.398 to 3.16 nM | Cc1cccc(-c2nccc(Nc3ccnc(Nc4ccc(NS(=O)(=O)CCN)cc4)n3)n2)n1 [Compound 363, 2-amino-N-[4-[[4-[[2-(6-methyl-2-pyridyl)pyrimidin-4-yl]amino]pyrimidin-2-yl]amino]phenyl] ethanesulfonamide] | 200 to 1260 nM
5 | 0.0398 to 0.316 nM | Cc1cccc(-c2nccc(Nc3ccnc(Nc4ccc(CN5CC(N(C)C)C5)cc4)n3)n2)n1 [Compound 501, N2-[4-[[3-(dimethylamino)azetidin-1-yl]methyl]phenyl]-N4-[2-(6-methyl-2-pyridyl)pyrimidin-4-yl]pyrimidine-2,4-diamine] | 25.1 to 158 nM
6 | 0.0398 to 0.316 nM | Cc1cccc(-c2nc(Nc3ccnc(Nc4ccc(N)cc4)n3)c3cccn3n2)n1 [Compound 1015, N2-(4-aminophenyl)-N4-[2-(6-methyl-2-pyridyl)pyrrolo[2,1-f][1,2,4]triazin-4-yl]pyrimidine-2,4-diamine] | 25.1 to 158 nM
7 | 0.398 to 3.16 nM | Cc1cccc(-c2nccc(Nc3ccnc(Nc4nc(C(=O)OC[C@H]5CCCCN5)cs4)n3)n2)n1 [Compound 586, [(2R)-2-piperidyl]methyl 2-[[4-[[2-(6-methyl-2-pyridyl)pyrimidin-4-yl]amino]pyrimidin-2-yl]amino]thiazole-4-carboxylate] | 25.1 to 158 nM
8 | 0.0398 to 0.316 nM | Cc1cccc(-c2nccc(Nc3ccnc(Nc4ccc(CN5CCC[C@@H](C(=O)O[C@H]6CCN(C)C6)C5)cc4)n3)n2)n1 [Compound 139, [(3S)-1-methylpyrrolidin-3-yl] (3R)-1-[[4-[[4-[[2-(6-methyl-2-pyridyl)pyrimidin-4-yl]amino]pyrimidin-2-yl]amino]phenyl]methyl] piperidine-3-carboxylate] | ≤ 20 nM
9 | 0.0398 to 0.316 nM | Cc1cccc(-c2nccc(Nc3ccnc(Nc4ccc(CN5CC6(CNC6)C5)cc4)n3)n2)n1 [Compound 163, N2-[4-(2,6-diazaspiro[3.3]heptan-2-ylmethyl)phenyl]-N4-[2-(6-methyl-2-pyridyl)pyrimidin-4-yl]pyrimidine-2,4-diamine] | 25.1 to 158 nM
10 | 0.0398 to 0.316 nM | Cc1cccc(-c2nc(Nc3ccnc(Nc4ccc(NC5CNC5)cc4)n3)c3cccn3n2)n1 [Compound 1040, N2-[4-(azetidin-3-ylamino)phenyl]-N4-[2-(6-methyl-2-pyridyl)pyrrolo[2,1-f][1,2,4]triazin-4-yl]pyrimidine-2,4-diamine] | 25.1 to 158 nM
11 | 0.0398 to 0.316 nM | CCOC(=O)Cc1cc(Nc2nccc(Nc3ccnc(-c4cccc(C)n4)n3)n2)ccc1N1CCNCC1 [Compound 156, ethyl 2-[5-[[4-[[2-(6-methyl-2-pyridyl)pyrimidin-4-yl]amino]pyrimidin-2-yl]amino]-2-piperazin-1-yl-phenyl]acetate] | 25.1 to 158 nM
12 | 0.0398 to 0.316 nM | Cc1cccc(-c2nccc(Nc3ccnc(Nc4csc(C(=O)OCCN5CCN6CCCC6C5)c4)n3)n2)n1 (stereo not shown) [Compound 599, 2-(3,4,6,7,8,8a-hexahydro-1H-pyrrolo[1,2-a]pyrazin-2-yl)ethyl 4-[[4-[[2-(6-methyl-2-pyridyl)pyrimidin-4-yl]amino]pyrimidin-2-yl]amino]thiophene-2-carboxylate] | 25.1 to 158 nM
13 | 0.398 to 3.16 nM | COC(=O)C1CN(CCNc2ccc(Nc3nccc(Nc4ccnc(-c5cccc(C)n5)n4)n3)cc2)CCN1 (stereo not shown) [Compound 369, methyl 4-[2-[4-[[4-[[2-(6-methyl-2-pyridyl)pyrimidin-4-yl]amino]pyrimidin-2-yl]amino]anilino]ethyl] piperazine-2-carboxylate] | 25.1 to 158 nM
14 | 0.0398 to 0.316 nM | COC(=O)[C@H]1CN(Cc2ccc(Nc3nccc(Nc4ccnc(-c5cccc(C)n5)n4)n3)cc2)CCN1 [Compound 268, methyl (2R)-4-[[4-[[4-[[2-(6-methyl-2-pyridyl)pyrimidin-4-yl]amino]pyrimidin-2-yl]amino]phenyl]methyl] piperazine-2-carboxylate] | ≤ 20 nM
15 | 0.398 to 3.16 nM | CNC1CCN(c2ccc(Nc3nccc(Nc4ccnc(-c5cc(O)ccc5C)n4)n3)cc2)CC1 [Compound 379, 4-methyl-3-[4-[[2-[4-[4-(methylamino)-1-piperidyl]anilino]pyrimidin-4-yl]amino]pyrimidin-2-yl]phenol] | 200 to 1260 nM
16 | 0.0398 to 0.316 nM | Cc1cccc(-c2nccc(Nc3ccnc(Nc4ccc(C(=O)NC5CNC5)cc4)n3)n2)n1 [Compound 387, N-(azetidin-3-yl)-4-[[4-[[2-(6-methyl-2-pyridyl)pyrimidin-4-yl]amino]pyrimidin-2-yl]amino]benzamide] | ≤ 20 nM
17 | ≤ 0.0316 nM | Cc1cccc(-c2nccc(Nc3ccnc(Nc4ccc(N5CCCC(C(=O)O[C@H]6CCNC6)C5)cc4)n3)n2)n1 (stereo partly drawn) [Compound 144, [(3S)-pyrrolidin-3-yl] 1-[4-[[4-[[2-(6-methyl-2-pyridyl)pyrimidin-4-yl]amino]pyrimidin-2-yl]amino]phenyl]piperidine-3-carboxylate] | 25.1 to 158 nM
18 | 0.398 to 3.16 nM | Cc1cccc(-c2nccc(Nc3ccnc(Nc4ccc(CCO)cc4)n3)n2)n1 [Compound 146, 2-[4-[[4-[[2-(6-methyl-2-pyridyl)pyrimidin-4-yl]amino]pyrimidin-2-yl]amino]phenyl]ethanol] | 25.1 to 158 nM
19 | 0.398 to 3.16 nM | Cc1cccc(-c2nccc(Nc3ccnc(Nc4ccccc4)n3)n2)n1 [Compound 43, N4-[2-(6-methyl-2-pyridyl)pyrimidin-4-yl]-N2-phenyl-pyrimidine-2,4-diamine] | ≤ 20 nM
20 | ≤ 0.0316 nM | Cc1cccc(-c2nccc(Nc3ccnc(Nc4ccc(S(=O)(=O)NCCN)cc4)n3)n2)n1 [Compound 208, N-(2-aminoethyl)-4-[[4-[[2-(6-methyl-2-pyridyl)pyrimidin-4-yl]amino]pyrimidin-2-yl]amino]benzenesulfonamide] | ≤ 20 nM
21 | ≤ 0.0316 nM | Cc1cccc(-c2nccc(Nc3ccnc(Nc4ccc(N5CCN[C@H](CO)C5)cc4)n3)n2)n1 [Compound 46, [(2S)-4-[4-[[4-[[2-(6-methyl-2-pyridyl)pyrimidin-4-yl]amino]pyrimidin-2-yl]amino]phenyl]piperazin-2-yl]methanol] | 25.1 to 158 nM
22 | 0.0398 to 0.316 nM | Cc1cccc(-c2nccc(Nc3ccnc(Nc4ccc(CN5CCC(C(=O)O)CC5)cc4)n3)n2)n1 [Compound 484, 1-[[4-[[4-[[2-(6-methyl-2-pyridyl)pyrimidin-4-yl]amino]pyrimidin-2-yl]amino]phenyl]methyl] piperidine-4-carboxylic acid] | 200 to 1260 nM
23 | 0.0398 to 0.316 nM | Cc1cccc(-c2nccc(Nc3ccnc(Nc4nc(CN5CC(C(=O)O)C5)cs4)n3)n2)n1 [Compound 629, 1-[[2-[[4-[[2-(6-methyl-2-pyridyl)pyrimidin-4-yl]amino]pyrimidin-2-yl]amino]thiazol-4-yl]methyl]azetidine-3-carboxylic acid] | 1580 to 10000 nM
24 | 0.0398 to 0.316 nM | Cc1cccc(-c2nccc(Nc3ccnc(Nc4ccc(N5CCN[C@@H](C(=O)O)C5)cc4)n3)n2)n1 [Compound 422, (2R)-4-[4-[[4-[[2-(6-methyl-2-pyridyl)pyrimidin-4-yl]amino]pyrimidin-2-yl]amino]phenyl]piperazine-2-carboxylic acid] | 200 to 1260 nM
25 | 0.0398 to 0.316 nM | Cc1cccc(-c2nccc(Nc3ccnc(Nc4ccc(CN5CCN(Cc6ccccc6)CC5)cc4)n3)n2)n1 [Compound 23, N2-[4-[(4-benzylpiperazin-1-yl)methyl]phenyl]-N4-[2-(6-methyl-2-pyridyl)pyrimidin-4-yl]pyrimidine-2,4-diamine] | 25.1 to 158 nM
26 | 0.0398 to 0.316 nM | Cc1cccc(-c2nccc(Nc3ccnc(Nc4csc(C(=O)O[C@H]5C[C@H](N)C5)c4)n3)n2)n1 [Compound 638, (3-aminocyclobutyl) 4-[[4-[[2-(6-methyl-2-pyridyl)pyrimidin-4-yl]amino]pyrimidin-2-yl]amino]thiophene-2-carboxylate] | 25.1 to 158 nM

Reference: patent US20230399312A1, “SUBSTITUTED PYRIMIDINES AND METHODS OF USE” (THERAVANCE BIOPHARMA R&D IP, LLC, priority 2020, published 2023)
